The record followed here is US9567318B2, “Substituted pyrimidine compounds and uses thereof” (Memorial Sloan-Kettering Cancer Center, priority 2009, dated 2017).

SMILES strings stand for the structures.

The test system of this assay is Kasumi-1 acute myeloid leukemia cells. The assay is described as follows: Growth Inhibition Assay (Alamar blue), Kasumi-1. The assay is classed as cell-based, human. The following applies: Homo sapiens, Kasumi 1, 72 h, Kasumi-1 cells. How it is done: The IC50 values listed for some of these compounds illustrate the antiproliferative effects of the subject compounds and were obtained using the Growth Inhibition assays described herein.
Growth Inhibition Assay. Antiproliferative effects of inhibitors were evaluated using the dye Alamar blue. This reagent offers a rapid objective measure of cell viability in cell culture, and it uses the indicator dye resazurin to measure the metabolic capacity of cells, an indicator of cell viability. Briefly, cells were plated on Costar 96-well plates. For attached cells (such as SKBr3, MDA-MB-468, LNCaP, MRCS), 8,000 cells/well were used. For suspension cells (such as MOLM-13, Kasumi-1, OCI-Ly7, PBL), 20,000 cells/well were plated. Cells were allowed to incubate for 24 h at 37° C. before drug treatment. Drugs were added in triplicates at the indicated concentrations, and the plate was incubated for 72 h. Alamar Blue (440 μM) was added, and the plate read 6 h later using the Analyst GT (Fluorescence intensity mode, excitation 530 nm, emission 580 nm, with 560=dichroic mirror). Results were analyzed using the Softmax Pro software. The percentage cell growth inhibition was calculated by comparing fluorescence readings obtained from treated versus control cells, accounting for initial cell population (time zero).
Background: The colour change of resazurin is a common sign of viable cells or microbes.
A word on the IC50: it is the midpoint of a concentration-inhibition curve. Lower therefore signals greater potency. Turning to `CCOc1nc(N2CCOCC2)nc(OCC)c1Sc1nc(N)cc(NC(=O)c2ccco2)n1` [YK49, N-(6-amino-2-(4,6-diethoxy-2-morpholinopyrimidin-5-ylthio)pyrimidin-4-yl)furan-2-carboxamide], the IC50 was > 100 µM. On to `COc1nc(N2CCCCC2)nc(OC)c1Sc1nc(N)cc(N)n1` [YK12, 2-(4,6-dimethoxy-2-(piperidin-1-yl)pyrimidin-5-ylthio)pyrimidine-4,6-diamine], for which the IC50 was > 100 µM. Under `C=CC(=O)Nc1cc(N)nc(Sc2c(OC)nc(N3CCN(CCOCCOCCOCCO)CC3)nc2OC)n1` [YK54, N-(6-amino-2-(2-(4-(2-(2-(2-(2-hydroxyethoxy)ethoxy)ethoxy)ethyl)piperazin-1-yl)-4,6-dimethoxypyrimidin-5-ylthio)pyrimidin-4-yl)acrylamide] stands 4.8 µM; under `CCCCN1CCN(c2nc(OC)c(Sc3nc(N)cc(N)n3)c(OC)n2)CC1` [YK25, 2-(2-(4-butylpiperazin-1-yl)-4,6-dimethoxypyrimidin-5-ylthio)pyrimidine-4,6-diamine], > 100 µM; under `CCCCCCCC(=O)Nc1cc(N)nc(Sc2c(OC)nc(N3CCOCC3)nc2OC)n1` [YK22, N-(6-amino-2-(4,6-dimethoxy-2-morpholinopyrimidin-5-ylthio)pyrimidin-4-yl)octanamide], 12.3 µM.

Compound `C/C=C/C(=O)Nc1ccnc(Sc2c(C)nc(N3CCN(C)CC3)nc2C)n1` [YK87, (E)-N-(2-(4,6-dimethyl-2-(4-methylpiperazin-1-yl)pyrimidin-5-ylthio)pyrimidin-4-yl)but-2-enamide] showed an IC50 of 16 µM.

As for `CCC(=O)Nc1cc(N)nc(Sc2c(OC)nc(N3CCOCC3)nc2OC)n1` [YK15, N-(6-amino-2-(4,6-dimethoxy-2-morpholinopyrimidin-5-ylthio)pyrimidin-4-yl)propionamide], the IC50 was > 100 µM. Under `COc1nc(N2CCN(C)CC2)nc(OC)c1Sc1nc(N)cc(N)n1` [YK2, 2-(4,6-dimethoxy-2-(4-methylpiperazin-1-yl)pyrimidin-5-ylthio)pyrimidine-4,6-diamine] stands 57.2 µM; under `COc1nc(N2CCOCC2)nc(OC)c1Sc1nccc(N)n1` [YK69, 2-(4,6-dimethoxy-2-morpholinopyrimidin-5-ylthio)pyrimidin-4-amine], 54.2 µM; under `C/C=C/C(=O)Nc1cc(N)nc(Sc2c(OCC)nc(N3CCN(C)CC3)nc2OCC)n1` [YK34, (E)-N-(6-amino-2-(4,6-diethoxy-2-(4-methylpiperazin-1-yl)pyrimidin-5-ylthio)pyrimidin-4-yl)but-2-enamide], 55 µM. With `C=CC(=O)Nc1cc(N)nc(Sc2c(OC)nc(N3CCCCC3)nc2OC)n1` [YK19, N-(6-amino-2-(4,6-dimethoxy-2-(piperidin-1-yl)pyrimidin-5-ylthio)pyrimidin-4-yl)acrylamide] the figure was 2.5 µM; with `C=C(C)C(=O)Nc1ccnc(Sc2c(OC)nc(N3CCCC3)nc2OC)n1` [YK108, N-(2-(4,6-dimethoxy-2-(pyrrolidin-1-yl)pyrimidin-5-ylthio)pyrimidin-4-yl)methacrylamide], 9.5 µM. In turn, `COc1nc(N2CCCC2)nc(OC)c1Sc1nccc(NC(C)=O)n1` [YK66, N-(2-(4,6-dimethoxy-2-(pyrrolidin-1-yl)pyrimidin-5-ylthio)pyrimidin-4-yl)acetamide] returned an IC50 of 48.3 µM. Under `COc1nc(N2CCN(C)CC2)nc(OC)c1Sc1nccc(NC(C)=O)n1` [YK63, N-(2-(4,6-dimethoxy-2-(4-methylpiperazin-1-yl)pyrimidin-5-ylthio)pyrimidin-4-yl)acetamide] stands 11.2 µM.
